Test results taken from patent publication US20260109712A1, “RIFAMYCINS FOR NONTUBERCULOUS MYCOBACTERIA” (priority 2022, published 2026).
In brackets after ≈: the same amount, converted by molar mass.

Legend:
Format in all cases: cell-based, Mycobacterium abscessus
[1] = test system: M. abscessus Bamboo; test: Caseum surrogate MBC90 (cMBC90) kill assay
Text: (§1) The surrogate matrix was generated as described previously from cultured THP-1 cells (ATCC TIB-202) (mBio, 2023, 14, e0059823). M. abscessus exponential cultures grown in Middlebrook 7H9 broth (Sigma Aldrich) (OD600 0.6-0.9) were spun down and resuspended in water to an OD600 of 7, 0.7, and 0.07. As described for the M. tuberculosis caseum surrogate assay (mnBio, 2023, 14, e0059823), the bacterial suspensions (at three different dilutions resulting in ˜10^9, 10^8, and 10^7 starting CFU/mL, represented by circle, square, and triangle indicators respectively) were added to the caseum surrogate in the ratio 2:1 (vol/wt), briefly homogenized with 1.4-mm zirconia beads, divided evenly into nine 1.5-mL microcentrifuge tubes, and incubated as standing cultures at 37° C. At the indicated time points, tubes were removed and used for CFU enumeration by plating on Middlebrook 7H11 agar (Sigma Aldrich). Separate tubes were used at each time point. To determine the kill curves, cultures with a starting CFU/mL of 10^8 were used (resulting in the middle curve with square indicators). Arrows indicate the time points when drugs were added and the end of the treatment. The experiment was repeated three times independently, yielding similar results. A representative example is shown. Dots and error bars represent means and standard deviations of three technical replicates, respectively.
FIGS. 29A-29M show the Dose-response kill curves against M. abscessus Bamboo in caseum surrogate. M. abscessus cultures were set up as described in the legend of FIG. 28. Bacterial cell suspensions were added to yield a starting CFU of 10^8/mL (FIG. 28, middle growth curve with square indicators). […] The shaded areas indicate drug concentration windows achieved in caseum in vivo. (Antimicrob. Agents Chemother., 2021, 65, e0050621; Antimicrob. Agents Chemother., 2022, 66, e0221221; PLoS Med., 2019, 16, e1002773; ACS Infect. Dis., 2016, 2, 251-267). The experiment was repeated twice independently, yielding similar results. A representative example is shown. Dots and error bars represent means and standard deviations of three technical replicates, respectively. Horizontal dotted lines indicate the cutoff for 1 log reduction in CFU compared to 10-day drug-free control culture. The cMBC90 values shown in Table 16 are the drug concentrations that reduce CFU by 90% relative to the CFU of drug-free controls at day 10. Since the cultures were in the stationary phase on day 5 when drug treatment started, the CFUs of the drug-free cultures at day 10 were similar to the CFUs of the drug-free cultures at day 5 (FIG. 28).
as §1, with “(doi: 10.1128/mbio.00598-23).” for “(mBio, 2023, 14, e0059823).”, “(doi: 10.1128/mbio.00598-23),” for “(mnBio, 2023, 14, e0059823),”, “CFU/mL)” for “CFU/mL, represented by circle, square, and triangle indicators respectively)”, “curves for the drugs,” for “curves,”, “used.” for “used (resulting in the middle curve with square indicators). Arrows indicate the time points when drugs were added and the end of the treatment.”, “results.” for “results. A representative example is shown. Dots and error bars represent means and standard deviations of three technical replicates, respectively.”
The experiment was repeated twice independently, yielding similar results. A representative example is shown. The cMBC90 values shown in Table 16 are the drug concentrations that reduce CFU by 90% relative to the CFU of drug-free controls at day 10. […]

[2] = test system: M. abscessus ATCC 19977; test: MIC assay in 96-well plate format, wild-type strain
Procedure, shortened: (§2)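 Two-fold, ten-point dilutions in 7H9 with 2% DMSO; mid-log culture diluted to OD600=0.1 (1×10^7 CFU/mL). Incubated 3 days at 37 °C, shaking 110 RPM; growth = Day 3 minus Day 0 OD600, expressed as percentage of drug-free growth and plotted against concentration. Two biological replicates.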

[3] = test system: M. abscessus subsp. abscessus K21; test: MIC assay, clinical isolate K21; conditions: 90% inhibition of bacterial growth
[4] = test system: Δarr M. abscessus; test: MIC assay, isogenic arr-deleted strain; conditions: arr-deleted strain; 90% growth inhibition
Procedure, shortened: as §2

[5] = test system: M. abscessus Bamboo; test: Broth MBC90 (bMBC90); conditions: broth, 5 days
Text: Broth MIC, broth MBC90 (bMBC90), and caseum surrogate MBC90 ([…]) of clinically used antibiotics and of novel ADP-ribosylation-resistant rifabutin analogs against M. abscessus Bamboo have been evaluated.

[6] = test system: RFB-R1 M. abscessus; test: microbe, parasite or virus in culture
[7] = test system: M. abscessus Bamboo; test: MIC assay, clinical isolate Bamboo
[8] = 90% inhibition of bacterial growth

**Q.** `CO[C@H]1/C=C/O[C@@]2(C)Oc3c(C)c(O)c4c(c3C2=O)C2=NC3(CCN(CC(C)C)CC3)NC2=C(NC(=O)/C(C)=C/C=C/[C@H](C)[C@H](O)[C@@H](C)[C@@H](O)[C@@H](C)[C@H](OC(=O)c2ccccc2)[C@@H]1C)C4=O` [5a, 25-O-benzoyl rifabutin] was tested. Which cMBC90/bMBC90 ([1]; 5-day assays) did it give?
**A.** 26.7

**Q.** What about the MBC ([1]; caseum surrogate, 5 days, 90% CFU reduction vs drug-free control, read-out: cMBC90) of the same compound?
**A.** 8 µM (≈ 7.27 µg/mL)

**Q.** And the “Mab 19977 MIC” value [2, 8]?
**A.** 0.053 µM

**Q.** And the MIC ([2]; M. abscessus ATCC 19977, 90% growth inhibition, read-out: WT Mab MIC)?
**A.** 0.053 µM (≈ 0.0482 µg/mL)

**Q.** What about the MIC ratio ([2]; WT MIC/Δarr strain MIC) of the same compound?
**A.** 0.9

**Q.** What about the “Mab K21 MIC” value [3] of the same compound?
**A.** 0.098 µM

**Q.** What about the “Δarr Mab MIC” value [4] of the same compound?
**A.** 0.06 µM

**Q.** What about the MBC [5] of the same compound?
**A.** 0.30 µM (≈ 0.273 µg/mL)

**Q.** What about the “activity against rifamycin-resistant mutant RFB-R1” value ([6]; RNAP point mutation) of the same compound?
**A.** lost detectable activity

**Q.** And the “RFB-R1 M. abscessus MIC” value ([6]; rpoB H447Y mutant, 90% inhibition)?
**A.** >100 µM

**Q.** And the “Mab Bamboo MIC” value [7, 8]?
**A.** 0.065 µM

**Q.** What about the MIC ([7]; broth, M. abscessus Bamboo, Table 16, read-out: MIC) of the same compound?
**A.** 0.07 µM (≈ 0.0636 µg/mL)
